This passage reports Ki and EC50 results from paper PMC8396344, “Palmitoylation of Prolactin-Releasing Peptide Increased Affinity for and Activation of the GPR10, NPFF-R2 and NPFF-R1 Receptors: In Vitro Study” (International Journal of Molecular Sciences, 2021).

No end group written: not given here.

As usually defined, the Ki is a dissociation constant, usually derived from enzyme kinetics or from competition with a known ligand. A higher Ki goes with weaker binding. One may read the EC50 as the midpoint of the concentration-response curve.

For assay [1], the target named is T1, NPFF-R2 (Homo sapiens, UniProt Q9Y5X5).
T1 construct: host or cells: CHO-K1 (AequoScreen, co-expressing aequorin)
The experiment in a line: Competitive binding, [^125I]-1DMe, membranes of CHO-K1 cells with NPFF-R2. As for the experimental part:
(§1) Pellets of CHO-K1 cells containing NPFF-R2, NPFF-R1 and KOR receptors were homogenized in ice-cold homogenizing buffer (20 mM HEPES pH 7.1, 5 mM MgCl2, 0.7 mM bacitracin) with a DIAX 100 Homogenizer (Heidolph Instruments, Schwabach, Germany) and centrifuged in an ultracentrifuge (Beckman Coulter, Fullerton, CA, USA) at 26,000× g for 15 min at 4 °C. The pellets were homogenized in ice-cold homogenization buffer, and the previous steps were repeated 2 more times. After the third centrifugation, pellets were resuspended in ice-cold storage buffer (50 mM Tris-Cl pH 7.4, 0.5 mM EDTA, 10 mM MgCl2, 10% sucrose), and aliquots were stored at −80 °C. The concentration of isolated membrane proteins was determined by a PierceTM BCA Protein Assay Kit (Pierce, Rockford, IL, USA). […]
(§2) Experiments were carried out in duplicate at least three times, and Ki was calculated using the Cheng-Prusoff equation.
(§3) Data were analyzed by GraphPad Software (San Diego, CA, USA) and are presented as the means ± SEM. The saturation and competitive binding experiments were analyzed according to [46] using the Cheng-Prusoff equation [33]. […] From saturation binding experiments, the dissociation constant (Kd) and number of binding sites/cell (Bmax) were calculated. Inhibition constants (Ki) were calculated from IC50 values, Kd and the concentration of radioligands.

Another assay concerns the target T2, NPFF-R1 (Homo sapiens, UniProt Q9GZQ6).
T2 construct: host or cells: CHO-K1 (isolated membranes)
The experiment in a line: Competitive and saturation binding, [^125I]-1DMe, membranes of CHO-K1 cells with NPFF-R1. As for the experimental part:
as §2
(§4) Data were analyzed by GraphPad Software (San Diego, CA, USA) and are presented as the means ± SEM. The saturation and competitive binding experiments were analyzed according to [46] using the Cheng-Prusoff equation [33]. The competitive binding curves were plotted compared to the best fit for single-binding site models, and half maximal inhibitory concentration (IC50) values were obtained from nonlinear regression analysis. From saturation binding experiments, the dissociation constant (Kd) and number of binding sites/cell (Bmax) were calculated. Inhibition constants (Ki) were calculated from IC50 values, Kd and the concentration of radioligands.

Assay [2] concerns the target T3, KOR (Homo sapiens, UniProt P41145).
T3 construct: host or cells: CHO-K1
As to the kind of experiment: Competitive and saturation binding, [^125I]-dynorphin, membranes of CHO-K1 cells with KOR. The note with it: competition with [^125I]-dynorphin A, CHO-K1 membranes 5 µg protein/tube, 60 min RT; mean ± SEM, 2–5 independent experiments in duplicates; Cheng-Prusoff. As for the experimental part:
as §1, §2, §3

Another assay has as its target T4, Y1 (Homo sapiens, UniProt P25929).
T4 construct: host or cells: U2OS
T4 sequence (P25929 1-384): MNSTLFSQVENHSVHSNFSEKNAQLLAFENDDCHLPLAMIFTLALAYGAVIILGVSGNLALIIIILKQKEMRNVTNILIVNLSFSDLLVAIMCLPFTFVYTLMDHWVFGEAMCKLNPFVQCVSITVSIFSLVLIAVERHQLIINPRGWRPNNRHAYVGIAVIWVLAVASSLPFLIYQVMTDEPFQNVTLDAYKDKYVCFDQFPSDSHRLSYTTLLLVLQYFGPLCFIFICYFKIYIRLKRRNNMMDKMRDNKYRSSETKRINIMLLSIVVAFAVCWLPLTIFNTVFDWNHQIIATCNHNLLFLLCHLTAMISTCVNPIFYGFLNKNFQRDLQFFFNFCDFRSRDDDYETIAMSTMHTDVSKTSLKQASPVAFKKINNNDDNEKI
As to the kind of experiment: Competitive and saturation binding, [^125I]-PYY, U2OS cells with Y1. As for the experimental part:
(§5) Competition binding experiments were performed according to [45]. […] Binding experiments using U2OS cells were optimized and performed in assay buffer (50 mM Tris-Cl pH 7.4, 118 mM NaCl, 5 mM MgCl2, 4.7 mM KCl, 0.1% BSA) for cells stably expressing GHSR and (25 mM HEPES, 120 mM NaCl, 5 mM MgCl2, 4.7 mM KCl, 1 mM CaCl2, 0.5% BSA, 2 g/L glucose) for cells containing receptors Y1, Y2 and Y5. […] Cells were incubated for 60 min at room temperature (RT).
as §2, §4

The next assay deals with T5, GHSR (Homo sapiens, UniProt Q92847).
T5 construct: host or cells: U2OS
As to the kind of experiment: Competitive and saturation binding, [^125I]-ghrelin, U2OS cells with GHSR. As for the experimental part: as §5, §2, §4

For assay [3], the target named is T1, NPFF-R2. The experiment in a line: Intracellular Ca^2+ mobilization, AequoScreen CHO-K1 cells with NPFF-R2. It counts as cell-based. The note with it: CHO-K1 NPFF-R2 aequorin cells; peptides 10^−12 to 10^−5 M; mean ± SEM, three times in duplicates; read-out: EC50 intracellular Ca^2+ release, NPFF-R2. As for the experimental part:
The intracellular Ca^2+ level was measured using the AequoScreen stable CHO-K1 cell line containing NPFF-R2 purchased from Perkin Elmer according to the manufacturer’s protocol. Cells at 80–90% confluence cultured in media without selective antibiotics were detached (PBS pH 7.4 + 0.5 mM EDTA) and centrifuged. Cells resuspended in phenol red-free DMEM with 0.1% protease-free BSA and 5 µM coelenterazine h (Thermo Fisher Scientific Inc. Brand) were seeded at 50,000 cells/well in 96-well plates and incubated in the dark at RT with gentle agitation for 4 h. Peptides were tested at concentrations from 10^−12 to 10^−5 M. Luminescent light emission was recorded using a FlexStation 3 plate reader.
Ca^2+ release assay data are shown as the percentage of maximal response, and the results were analyzed by nonlinear regression as log agonist versus response using GraphPad software. Data are representative of at least three experiments, each performed in duplicate.

Assay [4] deals with T3, KOR. The experiment in a line: cell-based.
A further assay deals with T6, DOR (Homo sapiens, UniProt P41143).
T6 construct: host or cells: U2OS
The experiment in a line: Beta-lactamase reporter gene assay (FRET), DOR. The note with it: β-lactamase assay, agonist mode, U2OS cells; mean ± SEM, 2–3 independent experiments in duplicates. It counts as cell-based. On the technique in general: A reporter such as luciferase makes a cellular process visible.

A further assay concerns the target T7, MOR (Homo sapiens, UniProt P35372).
T7 construct: host or cells: U2OS
As to the kind of experiment: Beta-lactamase reporter gene assay (FRET), MOR. The class given is cell-based.

For the compound `CCCCCCCCCCCCCCCC(=O)N[C@@H](CO)C(=O)N[C@@H](CCCNC(=N)N)C(=O)N[C@H](C(=O)N[C@@H](Cc1c[nH]cn1)C(=O)N[C@@H](CCCNC(=N)N)C(=O)N[C@@H](Cc1c[nH]cn1)C(=O)N[C@@H](CO)C(=O)N[C@@H](CCSC)C(=O)N[C@@H](CCC(=O)O)C(=O)N[C@H](C(=O)N[C@@H](CCCNC(=N)N)C(=O)N[C@H](C(=O)N1CCC[C@H]1C(=O)N[C@@H](CC(=O)O)C(=O)N[C@H](C(=O)N[C@@H](CC(N)=O)C(=O)N1CCC[C@H]1C(=O)N[C@@H](C)C(=O)N[C@@H](Cc1c[nH]c2ccccc12)C(=O)N[C@@H](Cc1ccc(O)cc1)C(=O)N[C@@H](C)C(=O)N[C@@H](CO)C(=O)N[C@@H](CCCNC(=N)N)C(=O)NCC(=O)N[C@H](C(=O)N[C@@H](CCCNC(=N)N)C(=O)N1CCC[C@H]1C(=O)N[C@H](C(=O)NCC(=O)N[C@@H](CCCNC(=N)N)C(=O)N[C@@H](Cc1ccccc1)C(N)=O)C(C)C)[C@@H](C)CC)[C@@H](C)CC)[C@@H](C)O)[C@@H](C)CC)[C@@H](C)O` [Palm-PrRP31], the Ki on NPFF-R2 [1] amounted to 0.00077 ± 0.00019 µM; at NPFF-R1, 0.00078 ± 0.00011 µM; at KOR [2] it was 0.106 ± 0.015 µM; at Y1 it was 3.147 ± 0.031 µM; at GHSR, 0.16 ± 0.016 µM. For the same compound, the EC50 at NPFF-R2 [3] was 0.0142 ± 0.00152 µM; at KOR [4], greater than 10 µM; at DOR it was greater than 10 µM; at MOR, greater than 10 µM.
For the compound “SRAHQHSMETRTPDINPAWYTGRGIRPVGRF-NH2 [PrRP31, prolactin-releasing peptide 31, reference compound]”, the Ki was 0.0267 ± 0.00901 µM on NPFF-R2 [1]; 0.0404 ± 0.0042 µM at NPFF-R1; greater than 10 µM on KOR [2]; greater than 10 µM on Y1; greater than 10 µM on GHSR. Also, the EC50 at NPFF-R2 [3] was 0.08933 ± 0.00084 µM; at KOR [4] it was greater than 10 µM; at DOR, greater than 10 µM; on MOR, greater than 10 µM.
